Laboratory results taken from patent publication US20250115597A1, “TYK2 INHIBITORS AND COMPOSITIONS AND METHODS THEREOF” (LYNK PHARMACEUTICALS CO. LTD., priority 2021, published 2025).

Molecular target: T1, Ba/F3-FL-TYK2-P760L cells (Homo sapiens, UniProt P29597, P760L, cells depend on it)
T1 construct: BaF3-FL-T2P760L (nM)
Experiment: Anti-proliferative assay, Ba/F3-FL-TYK2-P760L cells (Cell-Titer Glo)
Type: cell-based
Settings: 72 h, read-out: BaF3-FL-T2P760L IC50
Protocol: Anti-Proliferative Assay Dimerization domain of Tel protein fused with JAK kinase domain was permanently transduced into Ba/F3 cells, whose proliferation is dependent on JAK activity in the absence of IL-3 induction. These engineered Ba/F3 cells (Ba/F3-FL-TYK2-[…], Ba/F3-TEL-TYK2 and Ba/F3-TEL-JAK2) were used to monitor JAK inhibitory activities of the compounds in the cellular. […] Cells were seeded at 2000/well of white flat bottom 96-well plates. The well containing medium only was used as background control. After 24 h growth, cells were treated with compounds. The test compounds were dissolved in DMSO to a stock concentration of 20 mM. 3-fold serially diluted compounds for 9 concentrations with top concentration of 20 μM was added into the each well. […] The cells continued to grow at 37° C. in 5% CO2 for 72 h after compound treatment. The viability was measured by cellular ATP determination using the Cell-Titer Glo luciferase reagent (Promega). The Luminescence value was recorded by a multi-label reader Envision (PerkinElmer).

T1 sequence (P29597 whole entry P760L): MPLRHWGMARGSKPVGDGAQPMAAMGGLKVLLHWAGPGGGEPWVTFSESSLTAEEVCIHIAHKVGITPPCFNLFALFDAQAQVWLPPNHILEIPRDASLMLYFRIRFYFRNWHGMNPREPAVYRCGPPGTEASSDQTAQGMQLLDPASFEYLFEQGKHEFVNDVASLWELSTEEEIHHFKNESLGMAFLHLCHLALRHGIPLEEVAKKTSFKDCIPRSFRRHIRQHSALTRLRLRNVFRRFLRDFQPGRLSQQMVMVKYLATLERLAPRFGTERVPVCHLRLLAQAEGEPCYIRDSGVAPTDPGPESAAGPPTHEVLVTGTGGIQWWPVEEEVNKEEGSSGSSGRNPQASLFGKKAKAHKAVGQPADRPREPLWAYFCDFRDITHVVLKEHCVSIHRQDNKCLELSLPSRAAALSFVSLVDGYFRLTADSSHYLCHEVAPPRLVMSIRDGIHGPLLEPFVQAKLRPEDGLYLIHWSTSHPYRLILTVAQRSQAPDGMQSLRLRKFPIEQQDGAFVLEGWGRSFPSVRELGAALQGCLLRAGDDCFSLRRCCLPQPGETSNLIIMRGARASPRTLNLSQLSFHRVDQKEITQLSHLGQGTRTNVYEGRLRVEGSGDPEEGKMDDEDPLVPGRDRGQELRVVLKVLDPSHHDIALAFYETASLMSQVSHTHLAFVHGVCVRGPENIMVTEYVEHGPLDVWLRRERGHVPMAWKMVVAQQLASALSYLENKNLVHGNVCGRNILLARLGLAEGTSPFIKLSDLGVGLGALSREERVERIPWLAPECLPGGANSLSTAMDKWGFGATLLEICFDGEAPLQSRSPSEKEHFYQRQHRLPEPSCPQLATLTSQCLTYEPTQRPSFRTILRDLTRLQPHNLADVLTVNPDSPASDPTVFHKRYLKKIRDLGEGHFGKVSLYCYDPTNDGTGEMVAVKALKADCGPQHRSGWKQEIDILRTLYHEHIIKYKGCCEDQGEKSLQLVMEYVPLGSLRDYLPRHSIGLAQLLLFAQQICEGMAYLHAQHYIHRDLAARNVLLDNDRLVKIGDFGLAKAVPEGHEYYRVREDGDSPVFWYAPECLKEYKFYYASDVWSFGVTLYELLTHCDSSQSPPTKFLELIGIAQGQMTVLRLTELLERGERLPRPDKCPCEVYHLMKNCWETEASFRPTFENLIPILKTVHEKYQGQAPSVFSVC

GI50 [nM] | Compound
676 | [2H]C([2H])([2H])NC(=O)c1cnc2cc1Nc1cc(cc(-c3ncn(C(C)C)n3)c1OC)COCc1cccc(n1)N2 [Example 84, 10-Methoxy-N-(methyl-d3)-11-[1-(propan-2-yl)-1H-1,2,4-triazol-3-yl]-15-oxa-2,4,8,21-tetraazatetracyclo[15.3.1.1^{3,7}.1^{9,13}]tricosa-1(21),3,5,7(23),9(22),10,12,17,19-nonaene-6-carboxamide]
584 | [2H]C([2H])([2H])NC(=O)c1nnc2cc1Nc1cc(cc(-c3ncn(C)n3)c1OC)CNCc1nc(ccc1F)N2 [Example 87, 18-Fluoro-10-methoxy-N-(methyl-d3)-11-(1-methyl-1H-1,2,4-triazol-3-yl)-2,4,5,8,15,21-hexaazatetracyclo[15.3.1.1^{3,7}.1^{9,13}]tricosa-1(20),3,5,7(23),9(22),10,12,17(21),18-nonaene-6-carboxamide]
46.9 | [2H]C([2H])([2H])NC(=O)c1nnc2cc1Nc1cc(cc(-c3ncn(C4CC4)n3)c1OC)COCc1cc(F)cc(n1)N2 [Example 88, 11-(1-Cyclopropyl-1H-1,2,4-triazol-3-yl)-19-fluoro-10-methoxy-N-(methyl-d3)-15-oxa-2,4,5,8,21-pentaazatetracyclo[15.3.1.1^{3,7}.1^{9,13}]tricosa-1(21),3,5,7(23),9(22),10,12,17,19-nonaene-6-carboxamide]
32.2 | [2H]C([2H])([2H])NC(=O)c1cnc2cc1Nc1cc(cc(-c3ncn(C4CC4)n3)c1OC)COCc1cc(F)cc(n1)N2 [Example 89, 11-(1-Cyclopropyl-1H-1,2,4-triazol-3-yl)-19-fluoro-10-methoxy-N-(methyl-d3)-15-oxa-2,4,8,21-tetraazatetracyclo[15.3.1.1^{3,7}.1^{9,13}]tricosa-1(21),3,5,7(23),9(22),10,12,17,19-nonaene-6-carboxamide]
126 | [2H]C([2H])([2H])NC(=O)c1nnc2cc1Nc1cc(cc(-c3nnc(C)o3)c1OC)COCc1nc(ccc1F)N2 [Example 90, 18-Fluoro-10-methoxy-N-(methyl-d3)-11-(5-methyl-1,3,4-oxadiazol-2-yl)-15-oxa-2,4,5,8,21-pentaazatetracyclo[15.3.1.1^{3,7}.1^{9,13}]tricosa-1(20),3,5,7(23),9(22),10,12,17(21),18-nonaene-6-carboxamide]
300 | [2H]C([2H])([2H])NC(=O)c1nnc2cc1Nc1cc(cc(-c3ncn(C)n3)c1OC)CCC(O)c1nc(ccc1F)N2 (centres unmarked) [Example 92, 18-Fluoro-16-hydroxy-10-methoxy-N-(methyl-d3)-11-(1-methyl-1H-1,2,4-triazol-3-yl)-2,4,5,8,21-pentaazatetracyclo[15.3.1.1^{3,7}.1^{9,13}]tricosa-1(20),3,5,7(23),9(22),10,12,17(21),18-nonaene-6-carboxamide]
97 | [2H]C([2H])([2H])NC(=O)c1nnc2cc1Nc1cc(cc(-c3nc(C)co3)c1OC)COCc1nc(ccc1F)N2 [Example 93, 18-Fluoro-10-methoxy-N-(methyl-d3)-11-(4-methyl-1,3-oxazol-2-yl)-15-oxa-2,4,5,8,21-pentaazatetracyclo[15.3.1.1^{3,7}.1^{9,13}]tricosa-1(20),3,5,7(23),9(22),10,12,17(21),18-nonaene-6-carboxamide]
293 | [2H]C([2H])([2H])NC(=O)c1nnc2cc1Nc1cc(cc(-c3ccn(C4CC4)n3)c1OC)COCc1cc(F)cc(n1)N2 [Example 94, 11-(1-Cyclopropyl-1H-pyrazol-3-yl)-19-fluoro-10-methoxy-N-(methyl-d3)-15-oxa-2,4,5,8,21-pentaazatetracyclo[15.3.1.1^{3,7}.1^{9,13}]tricosa-1(21),3,5,7(23),9(22),10,12,17,19-nonaene-6-carboxamide]
809 | [2H]C([2H])([2H])NC(=O)c1cnc(NC(=O)[C@H]2C[C@H]2F)cc1Nc1cn(C)c2ccn(CC)c(=O)c12 [Example 101, 4-[(5-Ethyl-1-methyl-4-oxo-pyrrolo[3,2-c]pyridin-3-yl)amino]-6-[[(1R,2R)-2-fluorocyclopropanecarbonyl]amino]-N-(methyl-d3)pyridine-3-carboxamide]
807 | [2H]C([2H])([2H])NC(=O)c1cnc(NC(=O)[C@@H]2C[C@@H]2F)cc1Nc1cn(C)c2ccn(CC)c(=O)c12 [Example 102, 4-[(5-Ethyl-1-methyl-4-oxo-pyrrolo[3,2-c]pyridin-3-yl)amino]-6-[[(1S,2S)-2-fluorocyclopropanecarbonyl]amino]-N-(methyl-d3)pyridine-3-carboxamide]
761 | [2H]C([2H])([2H])NC(=O)c1cnc(NC(=O)[C@@H]2C[C@H]2F)cc1Nc1cn(C)c2ccn(CC)c(=O)c12 [Example 103, 4-[(5-Ethyl-1-methyl-4-oxo-pyrrolo[3,2-c]pyridin-3-yl)amino]-6-[[(1S,2R)-2-fluorocyclopropanecarbonyl]amino]-N-(methyl-d3)pyridine-3-carboxamide]
2420 | [2H]C([2H])([2H])NC(=O)c1cnc(NC(=O)C2(C(F)(F)F)CC2)cc1Nc1cn(C)c2ccn(CC)c(=O)c12 [Example 104, 4-[(5-Ethyl-1-methyl-4-oxo-pyrrolo[3,2-c]pyridin-3-yl)amino]-N-(methyl-d3)-6-[[1-(trifluoromethyl)cyclopropanecarbonyl]amino]pyridine-3-carboxamide]
206 | [2H]C([2H])([2H])NC(=O)c1cnc(NC(=O)C2CC2)cc1Nc1cn(C)c2ccn(CC3CC3)c(=O)c12 [Example 106, 6-(Cyclopropanecarboxamido)-4-((5-(cyclopropylmethyl)-1-methyl-4-oxo-4,5-dihydro-1H-pyrrolo[3,2-c]pyridin-3-yl)amino)-N-(methyl-d3)nicotinamide]
2100 | [2H]C([2H])([2H])NC(=O)c1cnc(NC(=O)C2CC2)cc1Nc1nn(C)c2ccn(CC3CC3(F)F)c(=O)c12 (centres unmarked) [Example 107, 6-(Cyclopropanecarboxamido)-4-((5-((2,2-difluorocyclopropyl)methyl)-1-methyl-4-oxo-4,5-dihydro-1H-pyrazolo[4,3-c]pyridin-3-yl)amino)-N-(methyl-d3)nicotinamide]
523 | [2H]C([2H])([2H])NC(=O)c1cnc(NC(=O)C2CC2)cc1Nc1cn(C)c2ccn(C3CC3)c(=O)c12 [Example 108, 6-(Cyclopropanecarboxamido)-4-((5-cyclopropyl-1-methyl-4-oxo-4,5-dihydro-1H-pyrrolo[3,2-c]pyridin-3-yl)amino)-N-(methyl-d3)nicotinamide]
147 | [2H]C([2H])([2H])NC(=O)c1cnc(NC(=O)C2CC2)cc1Nc1cn(C)c2ccn(CC=C)c(=O)c12 [Example 109, 4-((5-Allyl-1-methyl-4-oxo-4,5-dihydro-1H-pyrrolo[3,2-c]pyridin-3-yl)amino)-6-(cyclopropanecarboxamido)-N-(methyl-d3)nicotinamide]
154 | [2H]C([2H])([2H])NC(=O)c1cnc(NC(=O)C2CC2)cc1Nc1cn(C)c2ccn(C3CCC3)c(=O)c12 [Example 111, 4-((5-Cyclobutyl-1-methyl-4-oxo-4,5-dihydro-1H-pyrrolo[3,2-c]pyridin-3-yl)amino)-6-(cyclopropanecarboxamido)-N-(methyl-d3)nicotinamide]
477 | [2H]C([2H])([2H])NC(=O)c1cnc(NC(=O)C2CC2)cc1Nc1cn(C)c2ccn(CCOC)c(=O)c12 [Example 112, 6-(Cyclopropanecarboxamido)-4-((5-(2-methoxyethyl)-1-methyl-4-oxo-4,5-dihydro-1H-pyrrolo[3,2-c]pyridin-3-yl)amino)-N-(methyl-d3)nicotinamide]
1100 | [2H]C([2H])([2H])NC(=O)c1cnc(NC(=O)C2CC2)cc1Nc1cn(C)c2ccn([C@@H]3CCOC3)c(=O)c12 [Example 114, (R)-6-(cyclopropanecarboxamido)-N-(methyl-d3)-4-((1-methyl-4-oxo-5-(tetrahydrofuran-3-yl)-4,5-dihydro-1H-pyrrolo[3,2-c]pyridin-3-yl)amino)nicotinamide]
1100 | [2H]C([2H])([2H])NC(=O)c1cnc(NC(=O)C2CC2)cc1Nc1cn(C)c2ccn([C@H]3CCOC3)c(=O)c12 [Example 115, 6-(Cyclopropanecarbonylamino)-4-[[1-methyl-4-oxo-5-[(3S)-tetrahydrofuran-3-yl]pyrrolo[3,2-c]pyridin-3-yl]amino]-N-(methyl-d3)pyridine-3-carboxamide]
249 | [2H]C([2H])([2H])NC(=O)c1cnc(NC(=O)C2CC2)cc1Nc1cn(C)c2ccn(CC(=O)OCC)c(=O)c12 [Example 117, Ethyl 2-(3-((2-(cyclopropanecarboxamido)-5-((methyl-d3)carbamoyl)pyridin-4-yl)amino)-1-methyl-4-oxo-1,4-dihydro-5H-pyrrolo[3,2-c]pyridin-5-yl)acetate]
1060 | [2H]C([2H])([2H])NC(=O)c1cnc(NC(=O)C2CC2)cc1Nc1cn(C)c2ccn(-c3ccn(C)n3)c(=O)c12 [Example 118, 6-(Cyclopropanecarbonylamino)-4-[[1-methyl-5-(1-methylpyrazol-3-yl)-4-oxo-pyrrolo[3,2-c]pyridin-3-yl]amino]-N-(methyl-d3)pyridine-3-carboxamide]
1510 | [2H]C([2H])([2H])NC(=O)c1cnc(NC(=O)C2CC2)cc1Nc1cn(C)c2ccn(-c3cc(C)n(C)n3)c(=O)c12 [Example 119, 6-(Cyclopropanecarbonylamino)-4-[[5-(1,5-dimethylpyrazol-3-yl)-1-methyl-4-oxo-pyrrolo[3,2-c]pyridin-3-yl]amino]-N-(methyl-d3)pyridine-3-carboxamide]
